Experimental data taken from ChEMBL document CHEMBL3120136 (J Med Chem, 2014).
*1 amine or outer side, *2 acyl side, *3 side chain or, on linkers, in order; H or OH if unused. Where a SMILES comes first, the peptide text is derived from it. Side-chain parts run from the residue outwards. [ ]: non-standard residue; d: D form. The star is where a group is joined. Tetrahydroisoquinolin(2-yl) = c1ccc2c(c1)CCN(*)C2; Ac3c(1R,2S-2-vinyl) = C=C[C@@H]1C[C@]1(N)C(=O)O; Hyp = O=C(O)[C@@H]1C[C@@H](O)CN1; Chg = N[C@H](C(=O)O)C1CCCCC1; CO = O=C([*:1])[*:2]

Key:
Hepatitis C virus = assay: Antiviral activity against Hepatitis C virus infected in human HuH7 cells assessed as inhibition of HCV subgenomic replicon replication after 72 hrs by ELISA; assay type: functional, organism-based, Hepacivirus hominis, Huh-7; settings: Hepatitis C virus, Huh-7, 72 h; read-out: EC50
[1] = Inhibition of Hepatitis C virus full-length NS3/4A protease assessed as quenched-fluorogenic RET-S1 substrate cleavage incubated for 10 mins prior to substrate addition by FRET analysis; set-up: species or system Hepacivirus hominis

Structure (SMILES)	EC50 (Hepatitis C virus)	IC50 [1]
CC(C)(C)OC(=O)N[C@H]1CCCCC/C=C\[C@@H]2C[C@@]2(C(=O)O)NC(=O)[C@@H]2C[C@@H](OC(=O)N3Cc4cccc(Cl)c4C3)CN2C1=O	516 nM	13 nM
CC(C)(C)OC(=O)N[C@H]1CCCCC/C=C\[C@@H]2C[C@@]2(C(=O)NS(=O)(=O)C2CC2)NC(=O)[C@@H]2C[C@@H](NC(=O)c3nc4ccccc4[nH]3)CN2C1=O	614 nM	6.4 nM
CC(C)(C)OC(=O)N[C@H]1CCCCC/C=C\[C@@H]2C[C@@]2(C(=O)NS(=O)(=O)Nc2ccc(C(F)(F)F)cc2)NC(=O)[C@@H]2C[C@@H](OC(=O)N3Cc4ccccc4C3)CN2C1=O	70 nM	9.8 nM
CC(C)(C)OC(=O)N[C@H]1CCCCC/C=C\[C@@H]2C[C@@]2(C(=O)NS(=O)(=O)c2ccc(C#N)cc2)NC(=O)[C@@H]2C[C@@H](OC(=O)N3Cc4ccccc4C3)CN2C1=O	125 nM	3 nM
CC(C)(C)OC(=O)N[C@H]1CCCCC/C=C\[C@@H]2C[C@@]2(C(=O)NS(=O)(=O)C2CC2)NC(=O)[C@@H]2C[C@@H](OC(=O)N3Cc4ccc(C#N)cc4C3)CN2C1=O	112 nM	2.5 nM
CC(C)(C)OC(=O)N[C@H]1CCCCC/C=C\[C@@H]2C[C@@]2(C(=O)O)NC(=O)[C@@H]2C[C@@H](OC(=O)N3Cc4cccc(F)c4C3)CN2C1=O	1270 nM	10 nM
O=C(N[C@H]1CCCCC/C=C\[C@@H]2C[C@@]2(C(=O)NS(=O)(=O)C2CC2)NC(=O)[C@@H]2C[C@@H](OC(=O)N3Cc4ccccc4C3)CN2C1=O)OCCF	54 nM	1.5 nM
CC(C)(C)OC(=O)N[C@H]1CCCCC/C=C\[C@@H]2C[C@@]2(C(=O)NS(=O)(=O)C2CC2)NC(=O)[C@@H]2C[C@@H](NC(=O)N3Cc4ccccc4C3)CN2C1=O	47 nM	2.3 nM
O=C(N[C@H]1CCCCC/C=C\[C@@H]2C[C@@]2(C(=O)NS(=O)(=O)C2CC2)NC(=O)[C@@H]2C[C@@H](OC(=O)N3Cc4ccccc4C3)CN2C1=O)O[C@@H]1CCOC1	107 nM	2.8 nM
CC(C)(C)OC(=O)N[C@H]1CCCCC/C=C\[C@@H]2C[C@@]2(C(=O)NS(=O)(=O)C2CC2)NC(=O)[C@@H]2C[C@@H](OC(=O)N3Cc4c(F)ccc(F)c4C3)CN2C1=O	5.1 nM	0.7 nM
CC(C)(C)OC(=O)N[C@H]1CCCCC/C=C\[C@@H]2C[C@@]2(C(=O)O)NC(=O)[C@@H]2C[C@@H](OC(=O)N3Cc4ccc(F)cc4C3)CN2C1=O	3220 nM	38 nM
COc1ccc2c(c1)CN(C(=O)O[C@@H]1C[C@H]3C(=O)N[C@]4(C(=O)NS(=O)(=O)C5CC5)C[C@H]4/C=C\CCCCC[C@H](NC(=O)OC(C)(C)C)C(=O)N3C1)C2	22 nM	2.3 nM
CC(C)(C)OC(=O)N[C@H]1CCCCC/C=C\[C@@H]2C[C@@]2(C(=O)O)NC(=O)[C@@H]2C[C@@H](OC(=O)N3Cc4ccccc4C3)CN2C1=O	1550 nM	11 nM
CC(C)(C)OC(=O)N[C@H]1CCCCC/C=C\[C@@H]2C[C@@]2(C(=O)NS(=O)(=O)C2CC2)NC(=O)[C@@H]2C[C@@H](OC(=O)N3CCc4cccc(Cl)c4C3)CN2C1=O	43 nM	2.1 nM
CC(C)(C)OC(=O)N[C@H]1CCCOC/C=C\[C@@H]2C[C@@]2(C(=O)NS(=O)(=O)C2CC2)NC(=O)[C@@H]2C[C@@H](OC(=O)N3Cc4cccc(F)c4C3)CN2C1=O	155 nM	0.8 nM
CC(C)(C)OC(=O)N[C@H]1CCCCC/C=C\[C@@H]2C[C@@]2(C(=O)NS(=O)(=O)C2CC2)NC(=O)[C@@H]2C[C@@H](OC(=O)N3Cc4ccc(N)cc4C3)CN2C1=O	42 nM	1.5 nM
CC(C)(C)OC(=O)N[C@H]1CCCCC/C=C\[C@@H]2C[C@@]2(C(=O)NS(=O)(=O)C2CC2)NC(=O)[C@@H]2C[C@@H](NC(=S)N3CCc4ccccc4C3)CN2C1=O	365 nM	8.2 nM
CC(C)(C)OC(=O)N[C@H]1CCCCC/C=C\[C@@H]2C[C@@]2(C(=O)NS(=O)(=O)C2CC2)NC(=O)[C@@H]2C[C@@H](OC(=O)N3Cc4cccc(C(F)(F)F)c4C3)CN2C1=O	29 nM	1.2 nM
CC(C)(C)OC(=O)N[C@H]1CCCCC/C=C\[C@@H]2C[C@@]2(C(=O)NS(=O)(=O)C2CC2)NC(=O)[C@@H]2C[C@@H](OC(=O)N3Cc4c(Cl)ccc(Cl)c4C3)CN2C1=O	7.3 nM	1.7 nM

Structure (SMILES)	EC50 (Hepatitis C virus)	IC50 [1]
CCCC1(S(=O)(=O)NC(=O)[C@@]23C[C@H]2/C=C\CCCCC[C@H](NC(=O)OC(C)(C)C)C(=O)N2C[C@H](OC(=O)N4Cc5ccccc5C4)C[C@H]2C(=O)N3)CC1	5 nM	3 nM
O=C(N[C@H]1CCCCC/C=C\[C@@H]2C[C@@]2(C(=O)NS(=O)(=O)C2CC2)NC(=O)[C@@H]2C[C@@H](OC(=O)N3Cc4ccccc4C3)CN2C1=O)O[C@H]1CCOC1	217 nM	2.2 nM
CC(C)(C)OC(=O)N[C@H]1CCCC/C=C\[C@@H]2C[C@@]2(C(=O)NS(=O)(=O)C2CC2)NC(=O)[C@@H]2C[C@@H](OC(=O)N3Cc4cccc(F)c4C3)CN2C1=O	76.6 nM	1.5 nM
C=C[C@@H]1C[C@]1(NC(=O)[C@@H]1C[C@@H](OC(=O)N2CCc3ccccc3C2)CN1C(=O)[C@@H](NC(=O)[C@@H](NC(C)=O)C1CCCCC1)C(C)C)C(=O)O (Ac-[Chg]V[Hyp]([CO-Tetrahydroisoquinolin(2-yl)])[Ac3c(1R,2S-2-vinyl)]-OH)	> 10000 nM	210 nM
CC(C)(C)OC(=O)N[C@H]1CCCCC/C=C\[C@@H]2C[C@@]2(C(=O)NS(=O)(=O)N2CCOCC2)NC(=O)[C@@H]2C[C@@H](OC(=O)N3Cc4ccccc4C3)CN2C1=O	52 nM	4.4 nM
CC(C)(C)OC(=O)N[C@H]1COCCC/C=C\[C@@H]2C[C@@]2(C(=O)NS(=O)(=O)C2CC2)NC(=O)[C@@H]2C[C@@H](OC(=O)N3Cc4cccc(F)c4C3)CN2C1=O	70.2 nM	1.8 nM
CC(C)(C)OC(=O)N[C@H]1CCCCC/C=C\[C@@H]2C[C@@]2(C(=O)NS(=O)(=O)C2CC2)NC(=O)[C@@H]2C[C@@H](OC(=O)N3Cc4cccc(Br)c4C3)CN2C1=O	49 nM	1.1 nM
N[C@H]1CCCCC/C=C\[C@@H]2C[C@@]2(C(=O)NS(=O)(=O)C2CC2)NC(=O)[C@@H]2C[C@@H](OC(=O)N3Cc4cccc(F)c4C3)CN2C1=O	3050 nM	20 nM
CO[C@@H]1C[C@H]2C(=O)N[C@]3(C(=O)NS(=O)(=O)C4CC4)C[C@H]3/C=C\CCCCC[C@H](NC(=O)OC(C)(C)C)C(=O)N2C1	6300 nM	220 nM
CC(C)(C)OC(=O)N[C@H]1CCCCC/C=C\[C@@H]2C[C@@]2(C(=O)NS(=O)(=O)c2cc(Cl)sc2Cl)NC(=O)[C@@H]2C[C@@H](OC(=O)N3Cc4ccccc4C3)CN2C1=O	32 nM	0.5 nM
CC(C)(C)OC(=O)N[C@H]1CCCCC/C=C\[C@@H]2C[C@@]2(C(=O)NS(=O)(=O)c2cccs2)NC(=O)[C@@H]2C[C@@H](OC(=O)N3Cc4ccccc4C3)CN2C1=O	27 nM	2.5 nM
CC1CN(C(=O)O[C@@H]2C[C@H]3C(=O)N[C@]4(C(=O)NS(=O)(=O)C5CC5)C[C@H]4/C=C\CCCCC[C@H](NC(=O)OC(C)(C)C)C(=O)N3C2)Cc2ccccc21 (stereo partly specified)	5.7 nM	1 nM
CC(C)(C)OC(=O)N[C@H]1CCCCC/C=C\[C@@H]2C[C@@]2(C(=O)NS(=O)(=O)C2CC2)NC(=O)[C@@H]2C[C@@H](OC(=O)N3CCc4cccc(F)c4C3)CN2C1=O	12 nM	1.1 nM
CC(C)(C)OC(=O)N[C@H]1CCCCC/C=C\[C@@H]2C[C@@]2(C(=O)NS(=O)(=O)C2CC2)NC(=O)[C@@H]2C[C@@H](OC(=O)N3Cc4ccccc4C(C)(C)C3)CN2C1=O	7.7 nM	0.8 nM
CC(C)(C)OC(=O)N[C@H]1CCCCC/C=C\[C@@H]2C[C@@]2(C(=O)NS(=O)(=O)C2CC2)NC(=O)[C@@H]2C[C@@H](OC(=O)N3CCc4c(F)cccc4C3)CN2C1=O	12 nM	0.7 nM
CC(C)(C)OC(=O)N[C@H]1COCCCCC[C@@H]2C[C@@]2(C(=O)NS(=O)(=O)C2CC2)NC(=O)[C@@H]2C[C@@H](OC(=O)N3Cc4cccc(F)c4C3)CN2C1=O	12.4 nM	1.2 nM
CC(C)Nc1ccc2c(c1)CN(C(=O)O[C@@H]1C[C@H]3C(=O)N[C@]4(C(=O)NS(=O)(=O)C5CC5)C[C@H]4/C=C\CCCCC[C@H](NC(=O)OC(C)(C)C)C(=O)N3C1)C2	11 nM	4.3 nM
CC(C)(C)OC(=O)N[C@H]1CCCCC/C=C\[C@@H]2C[C@@]2(C(=O)NS(=O)(=O)C(C)(C)C)NC(=O)[C@@H]2C[C@@H](OC(=O)N3Cc4ccccc4C3)CN2C1=O	194 nM	37 nM
CC(C)(C)OC(=O)N[C@H]1CCCC(F)(F)C/C=C\[C@@H]2C[C@@]2(C(=O)NS(=O)(=O)C2CC2)NC(=O)[C@@H]2C[C@@H](OC(=O)N3Cc4cccc(F)c4C3)CN2C1=O	44 nM	0.5 nM
